Assay results published in PMC12007285 (Microbial Cell Factories, 2025).
One block for each molecule: values may come before it.

Tests used:
[1] = tested on: RsNpcB (reductase component of two-component p-nitrophenol monooxygenase RsNcpAB); test: NADH/NADPH oxidation at […] nm; type: biochemical, Rhodococcus sp. 21391; details: 50 mM Tris–HCl pH 7.5, 25 °C
[2] = target: p-nitrophenol monooxygenase oxidizing component RsNpcA (Rhodococcus sp. 21391) (UniProt Q6F4M8); test: SEC

Km ([1]; 200 μM NADH, FAD varied 0.2–1.0 μM): 0.11 ± 0.02 µM
Molecule: Cc1cc2nc3c(=O)[nH]c(=O)nc-3n(C[C@H](O)[C@H](O)[C@H](O)COP(=O)(O)OP(=O)(O)OC[C@H]3O[C@@H](n4cnc5c(N)ncnc54)[C@H](O)[C@@H]3O)c2cc1C [FAD]

Km ([1]; 200 μM NADH, FMN varied 0.2–1.0 μM): 0.02 ± 0.007 µM
Molecule: Cc1cc2nc3c(=O)[nH]c(=O)nc-3n(C[C@H](O)[C@H](O)[C@H](O)COP(=O)(O)O)c2cc1C [FMN]

Km ([1]; 20 μM FAD, NADH varied 20–220 μM): 45.5 ± 10.8 µM
Molecule: NC(=O)C1=CN([C@@H]2O[C@H](COP(=O)(O)OP(=O)(O)OC[C@H]3O[C@@H](n4cnc5c(N)ncnc54)[C@H](O)[C@@H]3O)[C@@H](O)[C@H]2O)C=CC1 [NADH]

Km ([1]; 20 μM FAD, NADPH varied 20–220 μM): 16.4 ± 4.62 µM
Molecule: NC(=O)C1=CN([C@@H]2O[C@H](COP(=O)(O)OP(=O)(O)OC[C@H]3O[C@@H](n4cnc5c(N)ncnc54)[C@H](OP(=O)(O)O)[C@@H]3O)[C@@H](O)[C@H]2O)C=CC1 [NADPH]

stoichiometry N [2]: 4
Molecule: p-nitrophenol monooxygenase oxidizing component RsNpcA (from UniProt Q6F4M8 1-528) (enzyme)
